Results reported in ChEMBL document CHEMBL1129634, “Antimicrobial alpha, alpha-dialkylated amino acid rich peptides with in-vivo activity against an intracellular pathogen” (1996).
Converted amounts (≈) assume the structure as drawn. Where a SMILES comes first, the peptide text is derived from it. [ ]: non-standard residue; d: D form. Ac6c = NC1(C(=O)O)CCCCC1; Api = NC1(C(=O)O)CCNCC1; Aib = CC(C)(N)C(=O)O

How the values were obtained:
Format in all cases: functional
[1] = % helicity of the compound
Mus musculus [2] = assay: In vivo antimicrobial activity of 500 microg peptide against Brucella abortus in chronically infected BALB/c mice
Escherichia coli = assay: In vitro antibacterial activity of the peptide was tested against Escherichia coli
Staphylococcus aureus = assay: In vitro antibacterial activity of the peptide was tested against Staphylococcus aureus
Mus musculus [3] = assay: In vivo antimicrobial activity of 1 mg peptide against Brucella abortus in chronically infected BALB/c mice

Compound	Helicity [1] [%]	Reduction (Mus musculus [2]) [%]	MIC (Escherichia coli) [µM]	MIC (Staphylococcus aureus) [µM]	Reduction (Mus musculus [3]) [%]
CC(C)(N)C(=O)NC(C)(C)C(=O)N[C@@H](CCCCN)C(=O)N[C@H](CCCCN)C(=O)NC(C)(C)C(=O)NC(C)(C)C(=O)N[C@@H](CCCCN)C(=O)NC(C)(C)C(=O)NC(C)(C)C(=O)N[C@H](CCCCN)C(=O)N[C@@H](CCCCN)C(=O)NC(C)(C)C(=O)NC(C)(C)C(=O)N[C@H](CCCCN)C(=O)O	42				
CC(C)(N)C(=O)NC(C)(C)C(=O)N[C@@H](CCCCN)C(=O)N[C@H](CCCCN)C(=O)NC(C)(C)C(=O)NC(C)(C)C(=O)N[C@@H](CCCCN)C(=O)NC(C)(C)C(=O)NC(C)(C)C(=O)N[C@H](CCCCN)C(=O)N[C@@H](CCCCN)C(=O)O	35				
CC(C)(N)C(=O)NC(C)(C)C(=O)N[C@H](CCCCN)C(=O)NC1(C(=O)NC(C)(C)C(=O)NC(C)(C)C(=O)N[C@H](CCCCN)C(=O)NC2(C(=O)NC(C)(C)C(=O)NC(C)(C)C(=O)O)CCNCC2)CCNCC1	43				
NCCCC[C@H](NC(=O)[C@@H](CCCCN)NC(=O)C1(NC(=O)C2(NC(=O)[C@H](CCCCN)NC(=O)C3(NC(=O)C4(NC(=O)[C@@H](CCCCN)NC(=O)[C@H](CCCCN)NC(=O)C5(N)CCCCC5)CCCCC4)CCCCC3)CCCCC2)CCCCC1)C(=O)O	43				
CC(=O)N[C@@H](CCCCN)C(=O)N[C@@H](CCCCN)C(=O)NC(C)(C)C(=O)NC(C)(C)C(=O)N[C@@H](CCCCN)C(=O)NC(C)(C)C(=O)NC(C)(C)C(=O)N[C@@H](CCCCN)C(=O)N[C@@H](CCCCN)C(=O)NC(C)(C)C(=O)NC(C)(C)C(N)=O (Ac-KK[Aib][Aib]K[Aib][Aib]KK[Aib][Aib]-NH2)		30	6.6 (≈ 7.99 µg/mL)	212 (≈ 257 µg/mL)	
NCCCC[C@H](NC(=O)[C@H](CCCCN)NC(=O)C1(NC(=O)C2(NC(=O)[C@H](CCCCN)NC(=O)C3(NC(=O)C4(NC(=O)[C@H](CCCCN)NC(=O)[C@@H](N)CCCCN)CCCCC4)CCCCC3)CCCCC2)CCCCC1)C(=O)NC1(C(N)=O)CCCCC1 (H-KK[Ac6c][Ac6c]K[Ac6c][Ac6c]KK[Ac6c]-NH2)			5.7 (≈ 7.32 µg/mL)	2.8 (≈ 3.59 µg/mL)	
NCCCC[C@H](NC(=O)[C@H](CCCCN)NC(=O)C1(NC(=O)C2(NC(=O)[C@H](CCCCN)NC(=O)C3(NC(=O)C4(NC(=O)[C@H](CCCCN)NC(=O)[C@@H](N)CCCCN)CCCCC4)CCCCC3)CCCCC2)CCCCC1)C(=O)NC1(C(=O)NC2(C(N)=O)CCCCC2)CCCCC1 (H-KK[Ac6c][Ac6c]K[Ac6c][Ac6c]KK[Ac6c][Ac6c]-NH2)			5.2 (≈ 7.33 µg/mL)	2.6 (≈ 3.66 µg/mL)	
CC(C)(NC(=O)C(C)(C)NC(=O)[C@H](CCCCN)NC(=O)[C@H](CCCCN)NC(=O)C(C)(C)NC(=O)C(C)(C)NC(=O)[C@H](CCCCN)NC(=O)C(C)(C)NC(=O)C(C)(C)NC(=O)[C@H](CCCCN)NC(=O)[C@@H](N)CCCCN)C(N)=O (H-KK[Aib][Aib]K[Aib][Aib]KK[Aib][Aib]-NH2)		<63	55 (≈ 64.3 µg/mL)	> 220	
NCCCC[C@H](NC(=O)[C@H](CCCCN)NC(=O)C1(NC(=O)C2(NC(=O)[C@H](CCCCN)NC(=O)C3(NC(=O)C4(NC(=O)[C@H](CCCCN)NC(=O)[C@H](CCCCN)NC(=O)C5(NC(=O)C6(NC(=O)[C@@H](N)CCCCN)CCCCC6)CCCCC5)CCCCC4)CCCCC3)CCCCC2)CCCCC1)C(=O)NC1(C(N)=O)CCCCC1 (H-K[Ac6c][Ac6c]KK[Ac6c][Ac6c]K[Ac6c][Ac6c]KK[Ac6c]-NH2)			4.5 (≈ 7.48 µg/mL)	2.2 (≈ 3.66 µg/mL)	
CC(C)(NC(=O)C(C)(C)NC(=O)[C@H](CCCCN)NC(=O)[C@H](CCCCN)NC(=O)C(C)(C)NC(=O)C(C)(C)NC(=O)[C@H](CCCCN)NC(=O)C(C)(C)NC(=O)C(C)(C)NC(=O)[C@H](CCCCN)NC(=O)[C@H](CCCCN)NC(=O)C(C)(C)NC(=O)C(C)(C)NC(=O)[C@@H](N)CCCCN)C(N)=O (H-K[Aib][Aib]KK[Aib][Aib]K[Aib][Aib]KK[Aib][Aib]-NH2)		<73	5.5 (≈ 8.07 µg/mL)	11 (≈ 16.1 µg/mL)	
CC(C)(N)C(=O)NC(C)(C)C(=O)NC1(C(=O)N[C@@H](CCCCN)C(=O)NC(C)(C)C(=O)NC(C)(C)C(=O)NC2(C(=O)N[C@@H](CCCCN)C(=O)NC(C)(C)C(=O)NC(C)(C)C(N)=O)CCNCC2)CCNCC1 (H-[Aib][Aib][Api]K[Aib][Aib][Api]K[Aib][Aib]-NH2)		90	7.7 (≈ 7.98 µg/mL)	123 (≈ 127 µg/mL)	
H-KAAKKAAKAAKKAA-NH2			> 178	> 178	6
